From patent US20060276464A1, “Diarylsulfone sulfonamides and use thereof” (Wyeth, priority 2005, published 2006)
Values joined by “and” are separate entries in the source; they are usually repeats but may differ in a detail not shown here. Equal entries are not always repeated. Where two headings read alike, the source gives them in different places.

How the values were obtained:
SFRP-1 [1] = target: T1, SFRP-1 (Homo sapiens, UniProt Q8N474); test: Cell-based assay for in vitro measurement of SFRP-1/SARP2 antagonist activity (U2OS cells co-transfected with 16x TCF-tk-Luciferase reporter, Wnt and hSFRP-1); details: U2OS, single dose, luciferase reporter;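 note: U2OS cells co-transfected with a TCF-tk luciferase reporter, a Wnt vector, hSFRP-1 or empty vector and CMV-βgal, luciferase luminescence read in cell lysates alongside βgal activity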
T1 sequence (Q8N474 32-314): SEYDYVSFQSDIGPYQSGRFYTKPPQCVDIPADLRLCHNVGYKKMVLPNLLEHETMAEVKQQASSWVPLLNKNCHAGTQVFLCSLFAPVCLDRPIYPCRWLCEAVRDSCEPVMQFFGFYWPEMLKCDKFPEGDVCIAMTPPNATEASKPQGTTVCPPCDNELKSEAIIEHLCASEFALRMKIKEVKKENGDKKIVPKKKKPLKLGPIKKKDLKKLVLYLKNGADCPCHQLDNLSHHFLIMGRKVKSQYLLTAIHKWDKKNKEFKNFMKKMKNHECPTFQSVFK

SFRP-1 [2] = target: T1, SFRP-1; test: Fluorescence polarization binding assay (competitive displacement of a probe compound from SFRP-1); details: fluorescence anisotropy, 45 nM SFRP-1, 20 nM probe;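 note: test compound competes with a fluorescent probe held by SFRP-1, seen as a drop in probe anisotropy after incubation in darkness, with anisotropy as function of rising compound dose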
[3] = read-out: Fold Induction with SFRP-1, Conc 15 μM, fold induction over SFRP-1 control, cells with SFRP-1
[4] = read-out: Fold Induction without SFRP-1, Conc 15 μM, cells without SFRP-1 (specificity control)

SMILES	fold induction at 15 µM (SFRP-1 [1]; [3])	fold induction at 15 µM (SFRP-1 [1]; [4])	IC50 (SFRP-1 [2])
CC(C)c1ccc(S(=O)(=O)c2cc(Cl)sc2Cl)cc1S(=O)(=O)NCCc1ccccn1 [Example 511, 5-[(2,5-dichloro-3-thienyl)sulfonyl]-2-isopropyl-N-(2-pyridin-2-ylethyl)benzenesulfonamide]	2.8	0.9	1800 nM and 2300 nM
Cc1nn(C)c(Cl)c1S(=O)(=O)c1ccc(C(C)C)c(S(=O)(=O)NCCc2ccccn2)c1 [Example 512, 5-[(5-chloro-1,3-dimethyl-1H-pyrazol-4-yl)sulfonyl]-2-isopropyl-N-(2-pyridin-2-ylethyl)benzenesulfonamide]	3.1	1.1	1000 nM
CC(C)c1ccc(S(=O)(=O)c2cn(C)cn2)cc1S(=O)(=O)NCCc1ccccn1 [Example 513, 2-isopropyl-5-[(1-methyl-1H-imidazol-4-yl)sulfonyl]-N-(2-pyridin-2-ylethyl)benzenesulfonamide]	2.2	1.2	6000 nM
Cc1c(Cl)cccc1S(=O)(=O)c1ccc(C(C)C)c(S(=O)(=O)NCCc2ccccn2)c1 [Example 514, 5-[(3-chloro-2-methylphenyl)sulfonyl]-2-isopropyl-N-(2-pyridin-2-ylethyl)benzenesulfonamide]	2.6	1	700 nM
Cc1ccc(S(=O)(=O)c2ccccc2)cc1S(=O)(=O)NC1CCN(C(=O)c2cccnc2)CC1 [Example 516, 2-methyl-5-(phenylsulfonyl)-N-[1-(pyridin-3-ylcarbonyl)piperidin-4-yl]benzenesulfonamide]	3	1	2600 nM
CC(C)c1ccc(S(=O)(=O)c2ccc(F)cc2)cc1S(=O)(=O)NC1CCN(C(=O)OC(C)(C)C)CC1 [Example 517, tert-butyl 4-[({5-[(4-fluorophenyl)sulfonyl]-2-isopropylphenyl}sulfonyl)amino]piperidine-1-carboxylate]	2.2	1	1600 nM
CC(C)c1ccc(S(=O)(=O)c2ccc(F)cc2)cc1S(=O)(=O)NC1CCN(S(=O)(=O)c2cccc3c(N(C)C)cccc23)CC1 [Example 518, N-(1-{[5-(dimethylamino)-1-naphthyl]sulfonyl}piperidin-4-yl)-5-[(4-fluorophenyl)sulfonyl]-2-isopropylbenzenesulfonamide]	3	1.2	500 nM
COCC(=O)N1CCC(NS(=O)(=O)c2cc(S(=O)(=O)c3ccc(F)cc3)ccc2C(C)C)CC1 [Example 519, 5-[(4-fluorophenyl)sulfonyl]-2-isopropyl-N-[1-(methoxyacetyl)piperidin-4-yl]benzenesulfonamide]	3	0.9	800 nM
CC(C)c1ccc(S(=O)(=O)c2ccc(F)cc2)cc1S(=O)(=O)NC1CCN(Cc2ccccc2)CC1 [Example 525, N-(1-benzylpiperidin-4-yl)-5-[(4-fluorophenyl)sulfonyl]-2-isopropylbenzenesulfonamide]	2.1	1.1	1000 nM
CCOC(=O)N1CCC(NS(=O)(=O)c2cc(S(=O)(=O)c3ccc(F)cc3)ccc2C(C)C)CC1 [Example 526, ethyl 4-[({5-[(4-fluorophenyl)sulfonyl]-2-isopropylphenyl}sulfonyl)amino]piperidine-1-carboxylate]	2.1	1.1	500 nM
CC(=O)N1CCC(NS(=O)(=O)c2cc(S(=O)(=O)c3ccc(F)cc3)ccc2C(C)C)CC1 [Example 529, N-(1-acetylpiperidin-4-yl)-5-[(4-fluorophenyl)sulfonyl]-2-isopropylbenzenesulfonamide]	2.8	1	500 nM
CC(C)c1ccc(S(=O)(=O)c2ccc(F)cc2)cc1S(=O)(=O)NC1CCN(C(=O)C2CC2)CC1 [Example 530, N-[1-(cyclopropylcarbonyl)piperidin-4-yl]-5-[(4-fluorophenyl)sulfonyl]-2-isopropylbenzenesulfonamide]	3	1	700 nM
CC(C)c1ccc(S(=O)(=O)c2ccc(F)cc2)cc1S(=O)(=O)NC1CCN(C(=O)c2ccc(C#N)cc2)CC1 [Example 531, N-[1-(4-cyanobenzoyl)piperidin-4-yl]-5-[(4-fluorophenyl)sulfonyl]-2-isopropylbenzenesulfonamide]	2.5	1.1	400 nM
CC(C)c1ccc(S(=O)(=O)c2ccc(F)cc2)cc1S(=O)(=O)NCCc1ccncc1 [Example 533, 5-[(4-fluorophenyl)sulfonyl]-2-isopropyl-N-(2-pyridin-4-ylethyl)benzenesulfonamide]	3.7	1.1	500 nM
CC(C)c1ccc(S(=O)(=O)c2ccc(F)cc2)cc1S(=O)(=O)NCCc1cccnc1 [Example 534, 5-[(4-fluorophenyl)sulfonyl]-2-isopropyl-N-(2-pyridin-3-ylethyl)benzenesulfonamide]	4	1.1	200 nM and 300 nM
CC(C)c1ccc(S(=O)(=O)c2cccc(C#N)c2)cc1S(=O)(=O)NCCc1ccccn1 [Example 539, 5-[(3-cyanophenyl)sulfonyl]-2-isopropyl-N-(2-pyridin-2-ylethyl)benzenesulfonamide]	2.9	1.2	2600 nM
CC(C)c1ccc(S(=O)(=O)c2ccc3[nH]ccc3c2)cc1S(=O)(=O)NCCc1ccccn1 [Example 540, 5-(1H-indol-5-ylsulfonyl)-2-isopropyl-N-(2-pyridin-2-ylethyl)benzenesulfonamide]	3.6	1.2	200 nM

Further lines, results first:

fold induction at 15 µM (SFRP-1 [1]; [3])	fold induction at 15 µM (SFRP-1 [1]; [4])	IC50 (SFRP-1 [2])	SMILES
3.3	1.1	2400 nM	CC(C)c1ccc(S(=O)(=O)c2ccc(F)cc2)cc1S(=O)(=O)NC1CCNCC1 [Example 520, 5-[(4-fluorophenyl)sulfonyl]-2-isopropyl-N-piperidin-4-ylbenzenesulfonamide]
2.1	1	3000 nM	CC(C)c1ccc(S(=O)(=O)c2ccc(F)cc2)cc1S(=O)(=O)NC1CCCC1 [Example 523, N-cyclopentyl-5-[(4-fluorophenyl)sulfonyl]-2-isopropylbenzenesulfonamide]
2.5	1.1	300 nM	CNc1ccc(S(=O)(=O)c2ccc(C(C)C)c(S(=O)(=O)NC3CCN(C(=O)OC(C)(C)C)CC3)c2)cc1 [Example 528, tert-butyl 4-{[(2-isopropyl-5-{[4-(methylamino)phenyl]sulfonyl}phenyl)sulfonyl]amino}piperidine-1-carboxylate]
2.8	1.1	4000 nM	CC(C)c1ccc(S(=O)(=O)c2ccc(F)cc2)cc1S(=O)(=O)NCC1CCCO1 (stereo not drawn) [Example 532, 5-[(4-fluorophenyl)sulfonyl]-2-isopropyl-N-(tetrahydrofuran-2-ylmethyl)benzenesulfonamide]
3.8	1.2	400 nM	CC(C)c1ccc(S(=O)(=O)c2ccc(NCCC#N)cc2)cc1S(=O)(=O)NC1CCOCC1 [Example 535, 5-({4-[(2-cyanoethyl)amino]phenyl}sulfonyl)-2-isopropyl-N-(tetrahydro-2H-pyran-4-yl)benzenesulfonamide]
3	1.2	400 nM	CC(C)c1ccc(S(=O)(=O)c2ccc(NCCC#N)cc2)cc1S(=O)(=O)NCC1CCOCC1 [Example 536, 5-({4-[(2-cyanoethyl)amino]phenyl}sulfonyl)-2-isopropyl-N-(tetrahydro-2H-pyran-4-ylmethyl)benzenesulfonamide]
2.9	1.1	700 nM	CC(C)c1ccc(S(=O)(=O)c2ccc(NCCC#N)cc2)cc1S(=O)(=O)NCCC1CCOCC1 [Example 537, 5-({4-[(2-cyanoethyl)amino]phenyl}sulfonyl)-2-isopropyl-N-[2-(tetrahydro-2H-pyran-4-yl)ethyl]benzenesulfonamide]
3.5	1.2	1500 nM	Cc1ccccc1S(=O)(=O)c1ccc(C(C)C)c(S(=O)(=O)NC2CCOCC2)c1 [Example 541, 2-isopropyl-5-[(2-methylphenyl)sulfonyl]-N-(tetrahydro-2H-pyran-4-yl)benzenesulfonamide]
2.7	1.1	1400 nM	Cc1c(Cl)cccc1S(=O)(=O)c1ccc(C(C)C)c(S(=O)(=O)NC2CCOCC2)c1 [Example 542, 5-[(3-chloro-2-methylphenyl)sulfonyl]-2-isopropyl-N-(tetrahydro-2H-pyran-4-yl)benzenesulfonamide]
2.7	1.1	800 nM and 1600 nM	CNc1ccc(S(=O)(=O)c2ccc(C(C)C)c(S(=O)(=O)NCC3CCOCC3)c2)cc1 [Example 543, 2-isopropyl-5-{[4-(methylamino)phenyl]sulfonyl}-N-(tetrahydro-2H-pyran-4-ylmethyl)benzenesulfonamide]
